Literature values in PMC3527451, “A Pilot Randomized, Placebo Controlled, Double Blind Phase I Trial of the Novel SIRT1 Activator SRT2104 in Elderly Volunteers” (PLoS ONE, 2012).

Tested on: DIO mice and ob/ob mice
Details: e.g. DIO and Lep ob/ob obese mice; cited from earlier work

## Oc1ccc(/C=C/c2cc(O)cc(O)c2)cc1 [resveratrol, reference compound]
  cholesterol, LDL and triglycerides in preclinical models of dyslipidemia, diabetes and obesity: lower cholesterol, LDL and triglycerides
